Test results: PubChem BioAssay AID330 (DTP/NCI, 2004)
Values joined by “and” are separate entries in the source; they are usually repeats but may differ in a detail not shown here. Equal values may be shown once. Inconclusive results and toxic doses are left out. How the source made its calls: active means survival T/C of 150% or more; inactive means T/C below 125% in these data.

System: P388 leukemia ip, CD2F1 mice, survival T/C
Assay: NCI In Vivo Anticancer Drug Screen. Data for tumor model P388 Leukemia (intraperitoneal) in CD2F1 (CDF1) mice
Conditions: endpoint: median survival time, higher = longer survival
Summary of the method: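 Mice carrying the transplanted tumor received test compound or vehicle. Survival was recorded in each group, and the value is the treated-group measurement divided by that of the vehicle-treated control group.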

[1] = dose: 50.0 mg/kg/injection, schedule: Q01DX005 (ip), vehicle: saline with Tween-80
[2] = dose: 100.0 mg/kg/injection, schedule: Q01DX005 (ip), vehicle: saline with Tween-80
[3] = dose: 200.0 mg/kg/injection, schedule: Q01DX005 (ip), vehicle: saline with Tween-80
[4] = dose: 50.0 mg/kg/injection, schedule: Q01DX009 (ip), vehicle: saline
[5] = dose: 100.0 mg/kg/injection, schedule: Q01DX009 (ip), vehicle: saline
[6] = dose: 200.0 mg/kg/injection, schedule: Q01DX009 (ip), vehicle: saline
[7] = dose: 100.0 mg/kg/injection, schedule: Q04DX003 (ip), vehicle: saline with Tween-80
[8] = dose: 200.0 mg/kg/injection, schedule: Q04DX003 (ip), vehicle: saline with Tween-80
[9] = dose: 400.0 mg/kg/injection, schedule: Q04DX003 (ip), vehicle: saline with Tween-80
[10] = dose: 60.0 mg/kg/injection, schedule: Q01DX005 (ip), vehicle: saline with Tween-80
[11] = dose: 120.0 mg/kg/injection, schedule: Q01DX005 (ip), vehicle: saline with Tween-80
[12] = dose: 240.0 mg/kg/injection, schedule: Q01DX005 (ip), vehicle: saline with Tween-80
[13] = dose: 60.0 mg/kg/injection, schedule: Q01DX005 (ip), vehicle: saline
[14] = dose: 120.0 mg/kg/injection, schedule: Q01DX005 (ip), vehicle: saline
[15] = dose: 240.0 mg/kg/injection, schedule: Q01DX005 (ip), vehicle: saline
[16] = dose: 50.0 mg/kg/injection, schedule: Q01DX005 (ip), vehicle: saline
[17] = dose: 100.0 mg/kg/injection, schedule: Q01DX005 (ip), vehicle: saline
[18] = dose: 200.0 mg/kg/injection, schedule: Q01DX005 (ip), vehicle: saline
[19] = dose: 50.0 mg/kg/injection, schedule: Q01DX009 (ip), vehicle: saline with Tween-80
[20] = dose: 100.0 mg/kg/injection, schedule: Q01DX009 (ip), vehicle: saline with Tween-80
[21] = dose: 200.0 mg/kg/injection, schedule: Q01DX009 (ip), vehicle: saline with Tween-80
[22] = dose: 25.0 mg/kg/injection, schedule: Q01DX009 (ip), vehicle: saline with Tween-80
[23] = dose: 50.0 mg/kg/injection, schedule: Q01DX009 (ip), vehicle: Klucel (hydroxypropylcellulose) (HPC)
[24] = dose: 100.0 mg/kg/injection, schedule: Q01DX009 (ip), vehicle: Klucel (hydroxypropylcellulose) (HPC)
[25] = dose: 200.0 mg/kg/injection, schedule: Q01DX009 (ip), vehicle: Klucel (hydroxypropylcellulose) (HPC)
[26] = dose: 100.0 mg/kg/injection, schedule: Q04DX003 (ip), vehicle: Klucel (hydroxypropylcellulose) (HPC)

Measured: T/C

COc1ccc(/C=N/OC(=S)NC2CCCCC2)cc1OC
inactive: [1] 102 % of control | [2] 94 % of control | [3] 93 % of control

O=C(O)C1CSC(c2ccccc2O)N1 (centres undefined)
inactive: [4] 90 % of control | [5] 96 % of control | [6] 90 % of control

Nc1ncnc2c1ncn2CC(O)CBr (centres undefined)
inactive: dose: 50.0 mg/kg/injection, schedule: Q01DX005 (ip), vehicle: Klucel (hydroxypropylcellulose) (HPC) 101 % of control | dose: 100.0 mg/kg/injection, schedule: Q01DX005 (ip), vehicle: Klucel (hydroxypropylcellulose) (HPC) 104 % of control | dose: 200.0 mg/kg/injection, schedule: Q01DX005 (ip), vehicle: Klucel (hydroxypropylcellulose) (HPC) 93 % of control

Cc1ccc([N+](=O)[O-])cc1NC(=O)COc1ccc(Cl)cc1
inactive: [7] 100 % of control | [8] 90 % of control | [9] 90 % of control

COC(=O)C(=O)c1c(C(=O)OC)nc2nnc(N)n2c1-c1ccc(O)c(OC)c1
inactive: [10] 92 % of control | [11] 94 % of control | [12] 94 % of control

CCOC(=O)/C=C/C(F)(F)F
inactive: dose: 30.0 mg/kg/injection, schedule: Q01DX005 (ip), vehicle: saline with Tween-80 100 % of control | dose: 30.0 mg/kg/injection, schedule: Q01DX005 (ip), vehicle: saline 94 % of control | [10] 100 % of control | [13] 99 % of control and 101 % of control | [11] 100 % of control | [14] 100 % of control and 101 % of control | [12] 107 % of control | [15] 100 % of control and 120 % of control

CCCCCCCCCCCCC1OCN2CCCCC12 (centres undefined)
inactive: [16] 106 % of control | [17] 100 % of control | [18] 113 % of control

CCN(CCCl)/N=N/c1nc2c([nH]1)c(=O)n(C)c(=O)n2C
inactive: [16] 100 % of control | [17] 105 % of control | [18] 109 % of control

O=[N+]([O-])c1ccc2c(ccn2C2OCC(O)C(O)C2O)c1 (centres undefined)
inactive: [19] 94 % of control | [20] 108 % of control | [21] 106 % of control

COC(=O)CCSCc1ccccc1
inactive: [13] 100 % of control | [14] 100 % of control | [15] 109 % of control

COc1ccc(C(C)c2cc3c(cc2OC(C)=O)OCO3)cc1 (centres undefined)
inactive: [1] 100 % of control | [2] 87 % of control | [3] 93 % of control

C[N+](C)([O-])CC1CC=CCC1C[N+](C)(C)[O-] (centres undefined)
inactive: dose: 25.0 mg/kg/injection, schedule: Q01DX005 (ip), vehicle: saline 99 % of control | [16] 106 % of control | [17] 91 % of control

CN1C(=O)Nc2ccc(Cl)cc2C1(O)c1ccccc1 (centres undefined)
inactive: [22] 90 % of control | [19] 86 % of control | [20] 92 % of control | [21] 91 % of control

O=S(=O)(Nc1ccccn1)c1ccc(N=Cc2c3ccccc3nc3cc(Cl)ccc23)cc1
inactive: [1] 91 % of control | [2] 88 % of control

Cn1cnnc1[N+](=O)[O-]
inactive: dose: 25.0 mg/kg/injection, schedule: Q04DX003 (ip), vehicle: saline sonified 100 % of control | dose: 50.0 mg/kg/injection, schedule: Q04DX003 (ip), vehicle: saline sonified 95 % of control | dose: 100.0 mg/kg/injection, schedule: Q04DX003 (ip), vehicle: saline sonified 90 % of control

COC(=O)C(OC)(OC)C(O)C(C)C (centres undefined)
inactive: [13] 104 % of control | [14] 103 % of control | [15] 103 % of control

COC(=O)C1(c2ccccc2)N=C(c2ccc(C)cc2)ON1c1ccccc1 (centres undefined)
inactive: [10] 107 % of control | [11] 95 % of control | [12] 92 % of control

O=C1NN2CCCN=C2c2cnccc21
inactive: [16] 110 % of control | [17] 97 % of control | [18] 89 % of control

Nc1ccnc(N)c1N=O
inactive: [7] 103 % of control | [8] 99 % of control | [9] 97 % of control

COC1=C(OC)C(=O)C(SCCCCCCC2CCCCC2)=C(Cl)C1=O
inactive: dose: 0.2 mg/kg/injection, schedule: Q01DX009 (ip), vehicle: saline 95 % of control | dose: 0.4 mg/kg/injection, schedule: Q01DX009 (ip), vehicle: saline 101 % of control | dose: 0.8 mg/kg/injection, schedule: Q01DX009 (ip), vehicle: saline 101 % of control | dose: 1.6 mg/kg/injection, schedule: Q01DX009 (ip), vehicle: saline 102 % of control | dose: 3.13 mg/kg/injection, schedule: Q01DX009 (ip), vehicle: saline 105 % of control | dose: 6.25 mg/kg/injection, schedule: Q01DX009 (ip), vehicle: saline 106 % of control

COc1ccc(C(O)(c2ccccc2)c2ccccc2)c(OC)c1
inactive: [23] 98 % of control | [24] 93 % of control | [25] 95 % of control

COc1ccc(-n2nc3c(ccc4ccccc43)c2N)cc1
inactive: [10] 94 % of control | [11] 95 % of control | [12] 94 % of control

CCCc1[nH]n(-c2cccc([N+](=O)[O-])c2)c(=O)c1N=Nc1ccc(Cl)cc1
inactive: [4] 93 % of control | [5] 90 % of control | [6] 87 % of control

CCOP(=O)(CC1OCCCO1)OCC
inactive: [4] 98 % of control | [5] 100 % of control | [6] 102 % of control

Cn1c(=O)c2[nH]c(C3COCCO3)nc2n(C)c1=O (centres undefined)
inactive: [10] 91 % of control | [12] 87 % of control

Nc1nc2nc3c(nc2c(=O)[nH]1)CCCC3
inactive: [10] 101 % of control | [11] 92 % of control | [12] 90 % of control

CCn1c2ccccc2c2ccc(N=Nc3ccccc3)cc21
inactive: [26] 100 % of control | dose: 200.0 mg/kg/injection, schedule: Q04DX003 (ip), vehicle: Klucel (hydroxypropylcellulose) (HPC) 100 % of control | dose: 400.0 mg/kg/injection, schedule: Q04DX003 (ip), vehicle: Klucel (hydroxypropylcellulose) (HPC) 105 % of control

O=C(C#Cc1ccccc1)c1ccccc1
inactive: dose: 12.5 mg/kg/injection, schedule: Q01DX009 (ip), vehicle: saline with Tween-80 122 % of control and 124 % of control | [22] 98 % of control | [19] 121 % of control

COc1ccc(C(=O)c2ccc(OCCBr)cc2)c(O)c1
inactive: [1] 92 % of control | [2] 88 % of control | [3] 88 % of control

CC1=CC[C@@H]2C(C#N)C3(CCC12C)OCCO3 (some centres undefined)
inactive: [1] 92 % of control | [2] 94 % of control | [3] 94 % of control

NC(CCS(=O)(=O)NO)C(=O)O (centres undefined)
inactive: dose: 12.5 mg/kg/injection, schedule: Q01DX009 (ip), vehicle: water 89 % of control | dose: 25.0 mg/kg/injection, schedule: Q01DX009 (ip), vehicle: water 99 % of control | dose: 50.0 mg/kg/injection, schedule: Q01DX009 (ip), vehicle: water 90 % of control | dose: 100.0 mg/kg/injection, schedule: Q01DX009 (ip), vehicle: water 102 % of control | dose: 200.0 mg/kg/injection, schedule: Q01DX009 (ip), vehicle: water 99 % of control

Cn1cnc([N+](=O)[O-])c1Sc1nc(N)nc2nc[nH]c12
inactive: [22] 109 % of control | dose: 50.0 mg/kg/injection, schedule: Q01DX009 (ip), vehicle: saline sonified 109 % of control | [26] 122 % of control

COc1cc(-c2ccc(NC(=O)Nc3nccs3)c(OC)c2)ccc1NC(=O)Nc1nccs1
inactive: [19] 95 % of control | [20] 98 % of control | [21] 96 % of control

CC(=O)Nc1ccc(/C=C2\C(=O)Nc3ccccc32)cc1
inactive: [23] 99 % of control and 91 % of control | [24] 87 % of control and 96 % of control | [25] 89 % of control and 91 % of control

O=C1CNC(=O)C(O)N1 (centres undefined)
inactive: [1] 93 % of control | [2] 100 % of control | [3] 97 % of control
